Test results from patent US9868735B2, “Benzazepine ketone compounds as glycogen phosphorylase inhibitor, preparation method therefor, and medical uses” (CHENGDE MEDICAL UNIVERSITY, priority 2013, dated 2018).

Biological target: T1, rabbit muscle glycogen phosphorylase (GPa) (Oryctolagus cuniculus, UniProt P00489)
T1 sequence (P00489 2-843 limits assumed): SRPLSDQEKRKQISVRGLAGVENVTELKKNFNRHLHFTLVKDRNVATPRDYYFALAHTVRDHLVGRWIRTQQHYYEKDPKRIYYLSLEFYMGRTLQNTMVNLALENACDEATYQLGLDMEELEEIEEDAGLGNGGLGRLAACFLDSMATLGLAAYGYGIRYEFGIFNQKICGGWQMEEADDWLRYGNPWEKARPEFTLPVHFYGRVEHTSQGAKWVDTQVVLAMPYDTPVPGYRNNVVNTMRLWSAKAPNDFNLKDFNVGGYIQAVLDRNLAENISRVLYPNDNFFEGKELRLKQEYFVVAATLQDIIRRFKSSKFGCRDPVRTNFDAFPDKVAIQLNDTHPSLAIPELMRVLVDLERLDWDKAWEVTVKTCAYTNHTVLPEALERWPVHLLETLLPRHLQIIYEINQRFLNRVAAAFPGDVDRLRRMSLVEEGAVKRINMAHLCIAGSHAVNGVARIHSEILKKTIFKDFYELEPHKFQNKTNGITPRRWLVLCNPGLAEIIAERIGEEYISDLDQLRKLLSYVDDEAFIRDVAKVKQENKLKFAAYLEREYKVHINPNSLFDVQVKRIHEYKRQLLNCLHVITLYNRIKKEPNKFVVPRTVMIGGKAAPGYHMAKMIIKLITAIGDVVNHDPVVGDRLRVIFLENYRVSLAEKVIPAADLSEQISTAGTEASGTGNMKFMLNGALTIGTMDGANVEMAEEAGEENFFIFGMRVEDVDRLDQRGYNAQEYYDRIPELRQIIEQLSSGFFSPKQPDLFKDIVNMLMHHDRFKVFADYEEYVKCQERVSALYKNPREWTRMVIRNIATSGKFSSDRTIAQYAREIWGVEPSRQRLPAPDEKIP
Assay: Glycogen phosphorylase in vitro inhibitory activity assay
Format: biochemical
Settings: GPa 250 ng/100 μl, 30° C. 20 minutes, colorimetry at 655 nm
Protocol: Glycogen Phosphorylase In Vitro Inhibitory Activity Assay
Preparation of reagents: 1) preparation of color developing solution: 5 g of ammonium molybdate was weighed, dissolved in 500 ml of 1M HCl and stirred with a stirrer until completely dissolved. Then the mixture was added with 190 mg of malachite green with stirring until completely dissolved. The solution prepared was wrapped with an aluminum foil to protect it from exposure to light; 2) preparation of buffer: {circumflex over (1)} 0.5958 g of Hepes was precisely weighed and dissolved in 5 ml H2O. […]
Determination of dose-response curve of rabbit muscle glycogen phosphorylase activity: a dose-response curve was determined by reading OD values of various concentrations of GPa solutions at 655 nm after added with a color developing solution. The amount of GPa can be 250 ng as determined from the dose-response curve.
Experimental procedure: 1) designing PC (positive control), Blank (blank control), positive drug (caffeine); 2) adding 52 μl of reaction buffer; 3) adding the test compound to a final concentration; 4) adding 1 μl of enzyme to a final concentration of 250 ng/100 μl; 5) adding 150 μl of the color developing solution; 6) reacting at 30° C. for 20 minutes; 7) colorimetry determination at a wavelength of 655 nm; 8) reading data and calculating inhibitory activity: Inhibitory Activity=(PC−test sample)/(PC−Blank)

IC50: < 100 nM
Structure (SMILES): O=C(Nc1ccc2c(c1)C(=O)NCCO2)c1cc2cc(Cl)ccc2[nH]1 [Example 1, 7-(5-Chloro-1H-indole-2-carboxamido)-3,4-dihydrobenzo[f][1,4]oxazepin-5(2H)-one]
